According to ChEMBL document CHEMBL5724914, “Linking interpersonal differences in gut microbiota composition and drug biotransformation activity” (2024):

How the values were obtained:
[1] = (§1) The drug is tested on Z-016 corresponding to mouse gut metagenome with ENA study accession number: PRJEB37062 and ENA sample accession number: ERS12561815 for biotransformation under anaerobic condition. The drug concentrations were measured over 9 timepoints collected between 0 and 24 hours of incubation by liquid-chromatography-coupled mass spectrometry (LC–MS); settings: 2 µM
[2] = human gut metagenome, 24 h, 2 µM
[3] = as §1, with “Z-013” for “Z-016”, “rabbit” for “mouse”, “ERS12561813” for “ERS12561815”; settings: 2 µM
[4] = as §1, with “Z-020” for “Z-016”, “rabbit” for “mouse”, “ERS12561819” for “ERS12561815”; settings: 2 µM
[5] = as §1, with “WLS-370” for “Z-016”, “human” for “mouse”, “ERS12561793” for “ERS12561815”; settings: 2 µM
[6] = as §1, with “WLS-090” for “Z-016”, “human” for “mouse”, “ERS12561753” for “ERS12561815”; settings: 2 µM
[7] = human gut metagenome, 24 h, 2 µM; remark: listed apart in the source
[8] = human gut metagenome, 24 h, 2 µM; remark: listed apart in the source
[9] = as §1, with “Z-019” for “Z-016”, “rat” for “mouse”, “ERS12561818” for “ERS12561815”; settings: 2 µM
[10] = as §1, with “Z-003” for “Z-016”, “pig” for “mouse”, “ERS12561803” for “ERS12561815”; settings: 2 µM
[11] = human gut metagenome, 24 h, 2 µM; remark: listed apart in the source
[12] = human gut metagenome, 24 h, 2 µM; remark: listed apart in the source
[13] = human gut metagenome, 24 h, 2 µM; remark: listed apart in the source
[14] = human gut metagenome, 24 h, 2 µM; remark: listed apart in the source
[15] = human gut metagenome, 24 h, 2 µM; remark: listed apart in the source
[16] = human gut metagenome, 24 h, 2 µM; remark: listed apart in the source
[17] = human gut metagenome, 24 h, 2 µM; remark: listed apart in the source
[18] = as §1, with “WLS-220” for “Z-016”, “human” for “mouse”, “ERS12561769” for “ERS12561815”; settings: 2 µM
[19] = as §1, with “WLS-027” for “Z-016”, “human” for “mouse”, “ERS12561744” for “ERS12561815”; settings: 2 µM
[20] = as §1, with “Z-018” for “Z-016”, “pig” for “mouse”, “ERS12561817” for “ERS12561815”; settings: 2 µM
Note: call rule not given here.

Row | SMILES | Bacterial Biotransformation [1] | Bacterial Biotransformation [2] | Bacterial Biotransformation [3] | Bacterial Biotransformation [4] | Bacterial Biotransformation [5] | Bacterial Biotransformation [6] | Bacterial Biotransformation [7] | Bacterial Biotransformation [8] | Bacterial Biotransformation [9] | Bacterial Biotransformation [10] | Bacterial Biotransformation [11] | Bacterial Biotransformation [12] | Bacterial Biotransformation [13] | Bacterial Biotransformation [14] | Bacterial Biotransformation [15] | Bacterial Biotransformation [16] | Bacterial Biotransformation [17] | Bacterial Biotransformation [18] | Bacterial Biotransformation [19] | Bacterial Biotransformation [20]
1 | N=C(N)NC(=O)Cc1c(Cl)cccc1Cl [GUANFACINE] | Compound NOT metabolized | Compound NOT metabolized | Compound NOT metabolized | Compound NOT metabolized | Compound NOT metabolized | Compound NOT metabolized | Compound NOT metabolized | Compound NOT metabolized | Compound NOT metabolized | Compound NOT metabolized | Compound NOT metabolized | Compound NOT metabolized | Compound NOT metabolized | Compound NOT metabolized | Compound NOT metabolized | Compound NOT metabolized | Compound NOT metabolized | Compound NOT metabolized | Compound NOT metabolized | 
2 | O=C(O)c1cc(/N=N/c2ccc(S(=O)(=O)Nc3ccccn3)cc2)ccc1O [SULFASALAZINE] | Compound metabolized | Compound metabolized | Compound metabolized | Compound metabolized | Compound metabolized | Compound metabolized | Compound metabolized | Compound metabolized |  | Compound metabolized | Compound metabolized | Compound metabolized | Compound metabolized | Compound metabolized | Compound metabolized | Compound metabolized | Compound metabolized | Compound metabolized | Compound metabolized | Compound metabolized
3 | CN(C/C=C/C#CC(C)(C)C)Cc1cccc2ccccc12 [TERBINAFINE] | Compound NOT metabolized | Compound NOT metabolized | Compound NOT metabolized | Compound NOT metabolized | Compound NOT metabolized | Compound NOT metabolized | Compound NOT metabolized | Compound NOT metabolized |  | Compound NOT metabolized | Compound NOT metabolized |  | Compound NOT metabolized | Compound NOT metabolized | Compound NOT metabolized | Compound NOT metabolized | Compound NOT metabolized | Compound NOT metabolized | Compound NOT metabolized | Compound NOT metabolized
4 | N#Cc1ccc2[nH]cc(CCCCN3CCN(c4ccc5oc(C(N)=O)cc5c4)CC3)c2c1 [VILAZODONE] | Compound metabolized | Compound metabolized | Compound metabolized |  | Compound metabolized | Compound metabolized |  | Compound metabolized | Compound NOT metabolized | Compound metabolized | Compound NOT metabolized | Compound metabolized |  | Compound metabolized | Compound metabolized | Compound metabolized | Compound metabolized | Compound metabolized | Compound metabolized | Compound NOT metabolized
